Measurements from ChEMBL document CHEMBL1201862, “PubChem BioAssay data set” (2004).
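Results reflect a 48-hour exposure of cells in 96-well plates to compound at five concentrations. Here, GI50 denotes the concentration required for 50% inhibition of growth.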 The source made the active and inactive calls. Cut-off read from the data, not from the text of the source: active = GI50 up to about 1.1 µM and inactive = higher.

Legend:
Assay in all cases: inhibition of tumour cell growth, NCI panel, 48 h
[1] = test system: SK-OV-3
[2] = test system: MOLT-4
[3] = test system: LOX IMVI
[4] = test system: RPMI-8226
[5] = test system: SNB-75
[6] = test system: T47D
[7] = test system: ACHN
[8] = test system: MDA-N
[9] = test system: IGROV-1
[10] = test system: DU-145
[11] = test system: NCI-H226
[12] = test system: SNB-19
[13] = test system: Hs-578T
[14] = test system: NCI/ADR-RES
[15] = test system: SW-620
[16] = test system: BT-549
[17] = test system: SF-539
[18] = test system: U-251
[19] = test system: HOP-92
[20] = test system: OVCAR-8
[21] = test system: HCT-116
[22] = test system: OVCAR-5
[23] = test system: NCI-H460
[24] = test system: SN12C
[25] = test system: HCT-15
[26] = test system: SK-MEL-28
[27] = test system: KM12
[28] = test system: A549
[29] = test system: HCC 2998
[30] = test system: M14
[31] = test system: SF-295
[32] = test system: SR
[33] = test system: RXF 393
[34] = test system: MCF7
[35] = test system: HL-60
[36] = test system: UACC-62
[37] = test system: CCRF-CEM
[38] = test system: UACC-257
[39] = test system: CAKI-1
[40] = test system: OVCAR-3
[41] = test system: COLO 205
[42] = test system: TK-10
[43] = test system: 786-0
[44] = test system: A498
[45] = test system: NCI-H23
[46] = test system: SK-MEL-5
[47] = test system: EKVX
[48] = test system: PC-3
[49] = test system: SF-268
[50] = test system: HT-29
[51] = test system: K562
[52] = test system: NCI-H522
[53] = test system: MDA-MB-435
[54] = test system: OVCAR-4
[55] = test system: Malme-3M
[56] = test system: HOP-62
[57] = test system: UO-31
[58] = test system: SK-MEL-2

In the case of `COC(=O)c1c(C)[nH]c2c1cc(O)c1nc(C)c(C)nc12`, the GI50 [1] was 70 µM (inactive), the GI50 [2] was > 100 µM (inactive) and the GI50 [3] was > 100 µM (inactive). For the same compound, the GI50 [4] was > 100 µM (inactive), the GI50 [5] was 19.5 µM (inactive) and the GI50 [6] was 47.3 µM (inactive). The GI50 [7] was 35.5 µM (inactive), the GI50 [8] was > 100 µM (inactive) and the GI50 [9] was > 100 µM (inactive). For the same compound, the GI50 [10] was > 100 µM (inactive), the GI50 [11] was > 100 µM (inactive) and the GI50 [12] was > 100 µM (inactive). The GI50 [13] was 45.9 µM (inactive), the GI50 [14] was > 100 µM (inactive) and the GI50 [15] was > 100 µM (inactive). For the same compound, the GI50 [16] was > 100 µM (inactive), the GI50 [17] was 34.3 µM (inactive) and the GI50 [18] was 60.3 µM (inactive). The GI50 [19] was 37.9 µM (inactive), the GI50 [20] was > 100 µM (inactive) and the GI50 [21] was 42.2 µM (inactive). For the same compound, the GI50 [22] was 76.7 µM (inactive), the GI50 [23] was > 100 µM (inactive) and the GI50 [24] was > 100 µM (inactive). For the same compound, the GI50 [25] was > 100 µM, the GI50 [26] was > 100 µM (inactive) and the GI50 [27] was > 100 µM (inactive). The GI50 [28] was > 100 µM (inactive), the GI50 [29] was > 100 µM (inactive) and the GI50 [30] was > 100 µM (inactive). The GI50 [31] was 23.6 µM (inactive), the GI50 [32] was > 100 µM (inactive) and the GI50 [33] was 28 µM (inactive). The GI50 [34] was 50.9 µM (inactive), the GI50 [35] was 5.77 µM (inactive) and the GI50 [36] was 43 µM (inactive). The GI50 [37] was > 100 µM (inactive), the GI50 [38] was > 100 µM (inactive) and the GI50 [39] was > 100 µM (inactive). For the same compound, the GI50 [40] was > 100 µM (inactive), the GI50 [41] was > 100 µM (inactive) and the GI50 [42] was 29.2 µM (inactive). For the same compound, the GI50 [43] was > 100 µM (inactive), the GI50 [44] was 14.8 µM (inactive) and the GI50 [45] was 49.4 µM (inactive). The GI50 [46] was 48.5 µM (inactive), the GI50 [47] was > 100 µM (inactive) and the GI50 [48] was 23.2 µM (inactive). For the same compound, the GI50 [49] was 49.2 µM (inactive), the GI50 [50] was > 100 µM (inactive) and the GI50 [51] was > 100 µM (inactive). For the same compound, the GI50 [52] was 74.8 µM (inactive), the GI50 [53] was > 100 µM (inactive) and the GI50 [54] was > 100 µM (inactive). The GI50 [55] was > 100 µM (inactive), the GI50 [56] was 18.7 µM (inactive) and the GI50 [57] was > 100 µM (inactive). The GI50 [58] was 33 µM (inactive).
